The values below come from patent publication US20240197728A1, “METHODS AND PHARMACEUTICAL COMPOSITIONS FOR TREATING REFRACTORY EPILEPSY” (INSERM (INSTITUT NATIONAL DE LA SANTÉ ET DE LA RECHERCHE …, priority 2021, published 2024).

The structures appear in SMILES notation.

This experiment addresses T1, KCC2 (Rattus norvegicus, UniProt Q63633).
T1 construct: endogenous in cells; host or cells: primary rat hippocampal neurons (E18-19 Sprague-Dawley)
T1 sequence (Q63633 1-1116 isoform Q63633-2): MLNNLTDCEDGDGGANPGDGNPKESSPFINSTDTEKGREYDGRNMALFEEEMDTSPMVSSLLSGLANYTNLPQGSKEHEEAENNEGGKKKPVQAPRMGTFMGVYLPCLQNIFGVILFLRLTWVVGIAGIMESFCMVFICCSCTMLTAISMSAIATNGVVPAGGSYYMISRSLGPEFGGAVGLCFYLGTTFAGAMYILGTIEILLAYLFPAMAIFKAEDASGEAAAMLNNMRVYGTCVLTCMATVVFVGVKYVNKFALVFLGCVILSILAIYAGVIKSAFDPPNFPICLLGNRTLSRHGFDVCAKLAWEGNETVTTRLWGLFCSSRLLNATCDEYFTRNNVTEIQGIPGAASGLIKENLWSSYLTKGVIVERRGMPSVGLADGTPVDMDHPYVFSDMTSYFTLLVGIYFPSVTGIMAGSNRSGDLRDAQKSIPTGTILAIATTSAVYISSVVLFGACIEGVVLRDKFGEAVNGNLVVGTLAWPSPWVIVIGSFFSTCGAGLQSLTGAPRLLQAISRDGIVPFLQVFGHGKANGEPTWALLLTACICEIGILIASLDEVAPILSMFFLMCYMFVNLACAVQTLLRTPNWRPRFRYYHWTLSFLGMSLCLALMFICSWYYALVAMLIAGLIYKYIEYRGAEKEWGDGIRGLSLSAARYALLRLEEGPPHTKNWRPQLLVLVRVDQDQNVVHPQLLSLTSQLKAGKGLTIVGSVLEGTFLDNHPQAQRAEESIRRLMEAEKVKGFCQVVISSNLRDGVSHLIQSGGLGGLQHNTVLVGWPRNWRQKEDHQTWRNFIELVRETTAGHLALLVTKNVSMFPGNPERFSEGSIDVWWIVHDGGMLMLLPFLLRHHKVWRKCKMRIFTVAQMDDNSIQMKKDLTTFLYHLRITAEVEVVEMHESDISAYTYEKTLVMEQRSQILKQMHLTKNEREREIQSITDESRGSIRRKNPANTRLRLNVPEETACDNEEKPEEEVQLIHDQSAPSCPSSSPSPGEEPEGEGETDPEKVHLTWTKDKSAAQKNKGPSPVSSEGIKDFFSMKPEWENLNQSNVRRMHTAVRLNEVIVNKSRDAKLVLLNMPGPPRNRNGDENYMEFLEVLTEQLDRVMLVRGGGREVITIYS
Description: KCC2 cluster immunocytochemistry in hippocampal neurons. The experiment is classed as cell-based. The settings on record: for change of KCC2 cluster area / change of KCC2 cluster density / change of KCC2 cluster intensity: vs DMSO. As for the experimental part: […] Drugs were added directly to the culture medium. For electrophysiology experiments, neurons were also recorded in presence of these drugs in the bath. For biochemistry experiments on rat hippocampo-cortical slices, slices were incubated with either DMSO (vehicle), CLP257, PCPZ, WNK463 or sodium orthovanadate for 2 hours in interface chambers set at 37° C. For human tissue experiments, slices were pre-incubated with either DMSO, CLP257 or PCPZ for 2 hours in interface chambers set at 37° C. and then also recorded in presence of these compounds.
Neurons were fixed for 15 min at room temperature (RT), with paraformaldehyde (PFA, 4% w/v in PBS). Cells were then washed in PBS, permeabilized with […] for 4 min at RT and then exposed to a blocking solution containing goat serum (20% v/v; Invitrogen) and 0.1% Triton X100 diluted in PBS. Neurons were incubated for 1 hour at RT with rabbit KCC2 antibody (1: 500; Sigma) and mouse MAP2 antibody (1:500; Chemicon). Neurons were then incubated for 45 min at RT with AlexaFluor 488-conjugated goat anti-mouse antibody (1:400; Jackson Labs) and with Cy3-conjugated goat anti-rabbit antibody (1:400; Jackson Labs). Neurons were then labeled with DAPI (1:2000, 5 min), washed in PBS and mounted on slides with Mowiol 844 (48 mg/ml, Sigma).
Images were acquired using a 63×objective (NA 1.40) mounted on an upright epifluorescence microscope (DM6000, Leica) equipped with a 12-bit cooled CCD camera (Micromax, Roper Scientific) operated with MetaMorph software (Roper Scientific). For KCC2 clusters detection, exposure time was adjusted to obtain best fluorescence to noise ratio and to avoid pixel saturation. This exposure time was maintained unchanged among cells and conditions. For experiments on non-transfected cells and for each neuron, dendritic sections were chosen using MAP2 labeling and then an image with tetramethylrhodamine (TRITC) filter was acquired to visualize KCC2 labeling.
KCC2 clusters analysis was performed using MetaMorph software (Roper Scientific), as previously described. Images were first flatten background filtered (kernel size, 3×3×2) to enhance cluster outline and a user-defined intensity threshold was applied to select clusters and avoid their coalescence. Clusters were delineated in the area of interest (AOI) and the corresponding regions were transferred onto raw images to quantify cluster density (mean KCC2 cluster number per 10 μm^2) and integrated cluster intensity (integrated fluorescence pixel intensity within clusters). For each culture, the analysis was done on 10 cells per condition and approx. 100 clusters per cell.

Consider `O=C1N=C(N2CCCCN2)S/C1=C\c1ccc(F)cc1O` [CLP257, (5Z)-5-[(4-Fluoro-2-hydroxyphenyl)methylene]-2-(tetrahydro-1-(2H)-pyridazinyl)-4(5H)-thiazolone], for which the “increased KCC2 clustering observed” value (100 μM CLP257, 30 minutes) is recorded as “not after 30 minutes only”. Also, for the setting “100 μM CLP257, 2 h”, the “change of KCC2 cluster area” value is reported as “+36.30±20.40%”, the “change of KCC2 cluster density” value is −3.48±4.20% and the “change of KCC2 cluster intensity” value is “+33.94±13.64%”.
Take `CN1CCN(CCCN2c3ccccc3Sc3ccc(Cl)cc32)CC1` [PCPZ, prochlorperazine]: for the setting “10 μM PCPZ, 30 minutes”, the “increased KCC2 clustering observed” value is on record as “not after 30 minutes only”. Further, under “10 μM PCPZ, 2 h”, the “change of KCC2 cluster area” value was “+45.25±18.07%”, the “change of KCC2 cluster density” value is reported as −6.58±8.37% and the “change of KCC2 cluster intensity” value is on record as “+109±61.44%”.
